The results in this text go back to PMC9170845, “Development of a multi faceted platform containing a tetrazine, fluorophore and chelator: synthesis, characterization, radiolabeling, and immuno-SPECT imaging” (EJNMMI Radiopharmacy and Chemistry, 2022).

Molecules are shown by their SMILES.

Data set [1] in a line: Fluorescence characterization (excitation/emission spectra, absolute quantum yield). To be noted: in DMSO (stated for 13); for fluorescence quantum yield (Φfl): absolute PLQY, integrating sphere. The data set is classed as physicochemical. How it is done: Following the synthesis of the final scaffold, the excitation and emission spectrum, and quantum yield were measured for the uncomplexed scaffold DO3A-BODIPY-Tz (13) in DMSO (Fig. 1), where an excitation λmax = 524 nm, emission λmax = 537 nm and a fluorescence quantum yield (Φfl) of 0.38 was observed. There are reports of tetrazine residues deactivating the fluorescence properties of fluorophores when they belong to the same molecular entity. However, once the tetrazine is conjugated, these properties are reinstated (Oliveira et al. [2017]; Wu and Devaraj [2018]). To ensure this, 13 was conjugated to TCO-NHS 16 in DMSO (Scheme 2). A distinct colour change from red to orange was observed which clearly indicated tetrazine consumption. The fluorescence properties of 17 (see Additional file1: Fig. S36) were then measured and compared to 13 and 4,4′-dicyano-BODIPY (7) (see Additional file1: Fig. S35; λmax excitation = 527 nm, λmax emission = 541 nm, Φfl = 0.87).
Luminescence experiments were conducted on an Edinburgh Instruments FS5 spectrometer using the SC-05 cassette. All spectra were corrected for instrument response. Excitation and emission monochromator bandwidths for 7 and 17 were set to 1 nm, and 1.5 nm for 13. The emission spectrum for 13 was collected with the aid of a Knight Optical 395 nm long-pass filter to reduce the effects of scattering. Solution-based absolute photoluminescent quantum yields (PLQY) were obtained for 7, 13, and 17 via the SC-30 Integrating Sphere cassette with excitation wavelengths of 380, 490, and 378 nm respectively.

Data set [2] can be described thus: Stability of cyano BODIPY core in acidic conditions (TFA in CDCl3, 1H NMR). The data set is classed as physicochemical. To be noted: treated with TFA in CDCl3, monitored via 1H NMR, 11 days. An excerpt: Initially our scaffold design comprised of the conventional 4,4′-difluoro-BODIPY fluorophore (Additional file1: Scheme S1). Despite numerous attempts and alternative strategies for completing the synthesis of the platform using the F-BODIPY fluorophore, the route was unsuccessful resulting in either BF2 core removal or complete decomposition (see Additional File), despite there being reports in the literature of similar transformations being successful in the presence of F-BODIPY dyes (Alnajjar et al. [2018]; Tsuji et al. [2018]; Sui et al. [2016]; Compton et al. [2019]; Ieda et al. [2014]). […] The increased stability is believed to be a result of enhanced aromaticity, decreased charge density on the boron, and the formation of a stable 4,4′-dicyano-BODIPY-TFA complex. To the best of our knowledge there has only been one example of an investigation incorporating 4,4′-dicyano-BODIPYs into a chemical synthesis with protecting groups (Uriel et al. [2020]). To reassure the stability of the cyano BODIPY core in acidic conditions, 7 was treated with TFA in CDCl3 and monitored via ^1H NMR (see Additional file1: Fig. S11) (Wang et al. [2018]). […] An alternative route was initially investigated, where the Cbz on 9 underwent hydrogenolysis followed by insertion of the chelator, deprotection, then insertion of the tetrazine. […]

As to `CCC1=C(C)C2=C(c3ccc(C(=O)ON4C(=O)CCC4=O)cc3)c3c(C)c(CC)c(C)n3[B-](C#N)(C#N)[N+]2=C1C` [compound 7, 4,4-dicyano-8-(4-(succinimidocarboxy)phenyl)-2,6-diethyl-1,3,5,7-tetramethyl-4-bora-3a,4a-diaza-s-indacene], in data set [1], the “emission λmax” value was 541 nm, the “excitation λmax” value turned out to be 527 nm and the “fluorescence quantum yield (Φfl)” value was determined as 0.87. For the same compound, the “Stability in acidic conditions” value in data set [2] is listed as “no indication of instability even after 11 days”.

In the case of `CCC1=C(C)C2=C(c3ccc(C(=O)NC(CCCCNC(=O)Cc4ccc(C5=NNC=C6CCC(OC(=O)ON7C(=O)CCC7=O)CCCC65)cc4)C(=O)NC(CCCCNC(=O)CN4CCN(CC(=O)O)CCN(CC(=O)O)CCN(CC(=O)O)CC4)C(=O)O)cc3)c3c(C)c(CC)c(C)n3[B-](C#N)(C#N)[N+]2=C1C` (stereo not shown) [compound 17], in data set [1], the “emission λmax” value is 537 nm, the “excitation λmax” value is given as 525 nm and the “fluorescence quantum yield (Φfl)” value is 0.79.

Regarding `CCC1=C(C)C2=C(c3ccc(C(=O)NC(CCCCNC(=O)Cc4ccc(-c5nncnn5)cc4)C(=O)NC(CCCCNC(=O)CN4CCN(CC(=O)O)CCN(CC(=O)O)CCN(CC(=O)O)CC4)C(=O)O)cc3)c3c(C)c(CC)c(C)n3[B-](C#N)(C#N)[N+]2=C1C` [compound 13, 2,2′,2″-(10-(2-(((S)-5-((S)-6-(2-(4-(1,2,4,5-tetrazin-3-yl)phenyl)acetamido)-2-(4-(4,4-dicyano-2,6-diethyl-1,3,5,7-tetramethyl-4-bora-3a,4a-diaza-s-indacen-8-yl)benzamido)hexanamido)-5-carboxypentyl)amino)-2-oxoethyl)-1,4,7,10-tetraazacyclododecane-1,4,7-triyl)triacetic acid], in data set [1], the “emission λmax” value was determined as 537 nm, the “excitation λmax” value was 524 nm and the “fluorescence quantum yield (Φfl)” value is listed as 0.38.
